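Test compounds were applied to cells in 96-well plates for 48 hours at 5 doses. TGI is the concentration that stops growth completely.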
Columns and labels:
Assay in all cases: DTP human tumour cell line panel, 48 h
[1] = test system: MDA-MB-435
[2] = test system: UACC-257 melanoma
[3] = test system: SF-539 CNS
[4] = test system: OVCAR-5 ovarian
[5] = test system: OVCAR-3 ovarian
[6] = test system: MCF7 breast
[7] = test system: SF-268 CNS
[8] = test system: A498 renal
[9] = test system: DU-145 prostate
[10] = test system: COLO 205 colon
[11] = test system: UACC-62 melanoma
[12] = test system: PC-3 prostate
[13] = test system: BT-549 breast
[14] = test system: M14 melanoma
[15] = test system: MOLT-4 leukemia
[16] = test system: A549 NSCLC
[17] = test system: CAKI-1 renal
[18] = test system: TK-10 renal
[19] = test system: NCI-H522 lung

| Compound | TGI [1] [µM] | TGI [2] [µM] | TGI [3] [µM] | TGI [4] [µM] | TGI [5] [µM] | TGI [6] [µM] | TGI [7] [µM] | TGI [8] [µM] | TGI [9] [µM] | TGI [10] [µM] | TGI [11] [µM] | TGI [12] [µM] | TGI [13] [µM] | TGI [14] [µM] | TGI [15] [µM] | TGI [16] [µM] | TGI [17] [µM] | TGI [18] [µM] | TGI [19] [µM] |
| --- | --- | --- | --- | --- | --- | --- | --- | --- | --- | --- | --- | --- | --- | --- | --- | --- | --- | --- | --- |
| CC(NNC(=O)c1ccncc1)c1ccccc1 (configuration not stated) | > 100 | > 100 | > 100 | > 100 | > 100 | > 100 | > 100 | > 100 | > 100 | > 100 | > 100 | > 100 | > 100 | > 100 | > 100 | > 100 | > 100 | > 100 |  |
| Nc1nc(Cl)c(N)c(NCC2(CO)CCC(OCc3ccccc3)C2)n1 (configuration not stated) | > 100 |  | > 100 | > 100 | > 100 | > 100 | > 100 | 81.5 | > 100 | > 100 | > 100 | > 100 | > 100 |  | > 100 | > 100 | > 100 | > 100 | > 100 |
| Oc1ccc(Br)cc1C=Nc1c(NC2CCCCC2)oc2ccc(Br)cc12 | > 100 | > 100 | > 100 | > 100 | 68.6 | 83.2 | > 100 | > 100 | > 100 |  | > 100 |  | 90.9 |  |  | > 100 | > 100 | > 100 |  |
| NCCCN(CCCCN(CCCN)Cc1ccccc1)Cc1ccccc1 | > 100 | > 100 | > 100 | 37.8 |  | 60.5 | 37.1 | > 100 | > 100 | > 100 | > 100 |  | > 100 | > 100 | 46 | > 100 | 31.9 | > 100 | 23.9 |
| CC(C(=O)NCNC(=O)c1ccccc1)C(=O)Nc1ccccc1 (configuration not stated) | > 100 | > 100 | > 100 | > 100 |  | > 100 | > 100 |  | > 100 | > 100 | > 100 | > 100 | > 100 | > 100 |  | > 100 | > 100 | > 100 | > 100 |
| CCOC(=O)c1c(NC(=S)Nc2ccccc2)sc2c1CCN(C)C2 |  | > 100 | > 100 | > 100 | > 100 | > 100 | > 100 | > 100 | > 100 | > 100 | > 100 | > 100 | > 100 | > 100 | > 100 | > 100 | > 100 | > 100 |  |
| COC(=O)CN(CC(=O)NCCNC(=O)OC(C)(C)C)C1CCCCC1N(CC(=O)OC)CC(=O)OC (configuration not stated) | > 100 | > 100 | > 100 | > 100 | > 100 | > 100 | > 100 | > 100 | > 100 | > 100 | > 100 | > 100 | > 100 |  | > 100 | > 100 | > 100 | > 100 | > 100 |
